Target: T1, KRAS G12C 1-169, his-tagged protein, GDP-loaded (Homo sapiens, UniProt P01116, G12C)
T1 construct: KRAS G12C 1-169, his-tagged protein, GDP-loaded
Assay: Biochemical assay: covalent binding of compounds to KRAS G12C, analysed by mass spectrometry
Details: binding measured at 30 min (compounds 247-375)
Protocol: Compounds were tested for activity as follows:
Compounds were diluted to 50× final test concentration in DMSO in 96-well storage plates. […] Reactions were mixed carefully and thoroughly by pipetting up/down with a 200 μl multi-channel pipettor. The plate was sealed well with aluminum plate seal, and stored in drawer at room temperature for 30 min, 2 hour or 24 hrs. 51 μl of 2% formic acid (Fisher cat # A117) in DI H2O was then added to each well followed by mixing with a pipette. The plate was then resealed with aluminum seal and stored on dry ice until analyzed as described below.
The above described assays were analyzed by mass spectrometry according to the following procedure:
The MS instrument is set to positive polarity, 2 GHz resolution, and low mass (1700) mode and allowed to equilibrate for 30 minutes. The instrument is then calibrated, switched to acquisition mode and the appropriate method loaded.
After another 30 minute equilibration time, a blank batch (i.e., buffer) is run to ensure equipment is operating properly. The samples are thawed at 37° C. for 10 minutes, briefly centrifuged, and transfer to the bench top. Wells A1 and H12 are spiked with 1 uL 500 uM internal standard peptide, and the plates centrifuged at 2000×g for 5 minutes. The method is then run and masses of each individual well recorded.
The masses (for which integration data is desired) for each well are pasted into the platemap and exported from the analysis. Masses for the internal standards are exported as well. The data at 50 ppm is extracted for the +19 charge state, and identity of well A1 is assigned using the internal standard spike and integrated. Peak data is exported as a TOF list and the above steps are repeated individually, for the +20, 21, 22, 23, 24, and 25 charge states.

T1 sequence (P01116 1-169 isoform P01116-2 G12C): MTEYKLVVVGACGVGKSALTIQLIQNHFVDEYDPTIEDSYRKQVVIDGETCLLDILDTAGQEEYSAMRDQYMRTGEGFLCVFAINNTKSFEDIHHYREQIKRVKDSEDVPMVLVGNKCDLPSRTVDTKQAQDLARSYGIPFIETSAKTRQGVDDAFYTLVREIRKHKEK

With C=CC(=O)N1CCN(c2cnnc3cc(-c4c(C)ccc5[nH]ncc45)c(C(F)(F)F)cc23)CC1 [Compound 350, 1-(4-(7-(5-methyl-1H-indazol-4-yl)-6-(trifluoromethyl)cinnolin-4-yl)piperazin-1-yl)prop-2-en-1-one] as the compound, how does the Binding % read?
Its Binding % is “++++ (++++ indicates binding activity greater than 75%)”.

With C=CC(=O)N1CCN(c2cnnc3cc(-c4cc(O)cc5ccccc45)c(C(F)(F)F)cc23)CC1 [Compound 351, 1-(4-(7-(3-hydroxynaphthalen-1-yl)-6-(trifluoromethyl)cinnolin-4-yl)piperazin-1-yl)prop-2-en-1-one] as the compound, how does the Binding % read?
The Binding % was “++++ (++++ indicates binding activity greater than 75%)”.

For C=CC(=O)N1CCN(c2nc(NCCc3nccn3C)nc3c(F)c(-c4c(C)ccc5[nH]ncc45)c(Cl)cc23)CC1 [Compound 352, 1-(4-(6-chloro-8-fluoro-2-(2-(1-methyl-1H-imidazol-2-yl)ethylamino)-7-(5-methyl-1H-indazol-4-yl)quinazolin-4-yl)piperazin-1-yl)prop-2-en-1-one], which Binding % is on record?
Its Binding % is “++++ (++++ indicates binding activity greater than 75%)”.

How did the Binding % turn out when C=CC(=O)N1CCN(c2ncnc3c(F)c(-c4c(O)cccc4F)c(Cl)cc23)CC1 [Compound 353, (S)-1-(4-(6-chloro-8-fluoro-7-(2-fluoro-6-hydroxyphenyl)quinazolin-4-yl)piperazin-1-yl)prop-2-en-1-one] was run?
The Binding % was “++++ (++++ indicates binding activity greater than 75%)”.

Which Binding % does the source give for C=CC(=O)N1CCN(c2nc(NC3CCN(CC(F)(F)F)C3)nc3c(F)c(-c4c(C)ccc5[nH]ncc45)c(Cl)cc23)CC1 (centres unmarked) [Compound 354, 1-(4-(6-chloro-8-fluoro-7-(5-methyl-1H-indazol-4-yl)-2-(1-(2,2,2-trifluoroethyl)pyrrolidin-3-ylamino)quinazolin-4-yl)piperazin-1-yl)prop-2-en-1-one] here?
Its Binding % is “++++ (++++ indicates binding activity greater than 75%)”.

How did the Binding % turn out when C=CC(=O)N1CCN(c2nc(NCCN(C)C)nc3c(F)c(-c4cc(O)cc5ccccc45)c(Cl)cc23)CC1 [Compound 355, 1-(4-(6-chloro-2-(2-(dimethylamino)ethylamino)-8-fluoro-7-(3-hydroxynaphthalen-1-yl)quinazolin-4-yl)piperazin-1-yl)prop-2-en-1-one] was run?
Its Binding % is “++++ (++++ indicates binding activity greater than 75%)”.

Which Binding % does the source give for C=CC(=O)N1CCN(c2nc(NCC(F)(F)F)nc3c(F)c(-c4c(C)ccc5[nH]ncc45)c(Cl)cc23)CC1 [Compound 356, 1-(4-(6-chloro-8-fluoro-7-(5-methyl-1H-indazol-4-yl)-2-(2,2,2-trifluoroethylamino)quinazolin-4-yl)piperazin-1-yl)prop-2-en-1-one] here?
Its Binding % is “+++ (+++ indicates binding activity greater than 50% and up to 75%)”.

C=CC(=O)N1CCN(c2nc(OCCCN3CCOCC3)nc3c(F)c(-c4c(C)ccc5[nH]ncc45)c(Cl)cc23)CC1 [Compound 357, 1-(4-(6-chloro-8-fluoro-7-(5-methyl-1H-indazol-4-yl)-2-(3-morpholinopropoxy)quinazolin-4-yl)piperazin-1-yl)prop-2-en-1-one] was tested. Which Binding % did it give?
Its Binding % is “++++ (++++ indicates binding activity greater than 75%)”.

C=CC(=O)N1CCN(c2nc(OCCN3CCCC3)nc3c(F)c(-c4c(C)ccc5[nH]ncc45)c(Cl)cc23)CC1 [Compound 358, 1-(4-(6-chloro-8-fluoro-7-(5-methyl-1H-indazol-4-yl)-2-(2-(pyrrolidin-1-yl)ethoxy)quinazolin-4-yl)piperazin-1-yl)prop-2-en-1-one] was tested. Which Binding % did it give?
The Binding % was “++++ (++++ indicates binding activity greater than 75%)”.

For C=CC(=O)N1CCN(c2ncnc3c(F)c(-c4c(F)ccc5c(C)n[nH]c45)c(Cl)cc23)CC1 [Compound 359, 1-(4-(6-chloro-8-fluoro-7-(6-fluoro-3-methyl-1H-indazol-7-yl)quinazolin-4-yl)piperazin-1-yl)prop-2-en-1-one], which Binding % is on record?
The Binding % was “++++ (++++ indicates binding activity greater than 75%)”.

Which Binding % does the source give for C=CC(=O)N1CCN(c2nc(NC3CCN(C)C3)nc3c(F)c(-c4cc(O)cc5ccccc45)c(Cl)cc23)CC1 (centres unmarked) [Compound 360, 1-(4-(6-chloro-8-fluoro-7-(3-hydroxynaphthalen-1-yl)-2-(1-methylpyrrolidin-3-ylamino)quinazolin-4-yl)piperazin-1-yl)prop-2-en-1-one] here?
The Binding % was “++++ (++++ indicates binding activity greater than 75%)”.

For C=CC(=O)N1CCN(c2nc(N(C)CCN(C)C)nc3c(F)c(-c4cc(O)cc5ccccc45)c(Cl)cc23)CC1 [Compound 361, 1-(4-(6-chloro-2-((2-(dimethylamino)ethyl)(meth-yl)amino)-8-fluoro-7-(3-hydroxynaphthalen-1-yl)quinazolin-4-yl)piperazin-1-yl)prop-2-en-1-one], which Binding % is on record?
Its Binding % is “++++ (++++ indicates binding activity greater than 75%)”.

For C=CC(=O)N1CCN(c2ncnc3c(F)c(-c4c(F)cccc4CN(C)C)c(Cl)cc23)CC1 [Compound 362, 1-(4-(6-chloro-7-(2-((dimethylamino)methyl)-6-fluorophenyl)-8-fluoroquinazolin-4-yl)piperazin-1-yl)prop-2-en-1-one], which Binding % is on record?
Its Binding % is “++ (++ indicates binding activity greater than 25% and up to 50%)”.

C=CC(=O)N1CCN(c2nc(NC3CCN(C)CC3)nc3c(F)c(-c4c(C)ccc5[nH]ncc45)c(Cl)cc23)CC1 [Compound 363, 1-(4-(6-chloro-8-fluoro-7-(5-methyl-1H-indazol-4-yl)-2-(1-methylpiperidin-4-ylamino)quinazolin-4-yl)piperazin-1-yl)prop-2-en-1-one] was tested. Which Binding % did it give?
The Binding % was “++++ (++++ indicates binding activity greater than 75%)”.

With C=CC(=O)N1CCN(c2nc(NC3CCOCC3)nc3c(F)c(-c4c(C)ccc5[nH]ncc45)c(Cl)cc23)CC1 [Compound 365, 1-(4-(6-chloro-8-fluoro-7-(5-methyl-1H-indazol-4-yl)-2-(tetrahydro-2H-pyran-4-ylamino)quinazolin-4-yl)piperazin-1-yl)prop-2-en-1-one] as the compound, how does the Binding % read?
Its Binding % is “++++ (++++ indicates binding activity greater than 75%)”.

With C=CC(=O)N1CCN(c2nc(OCCNC(C)=O)nc3c(F)c(-c4c(C)ccc5[nH]ncc45)c(Cl)cc23)CC1 [Compound 366, N-(2-(4-(4-acryloylpiperazin-1-yl)-6-chloro-8-fluoro-7-(5-methyl-1H-indazol-4-yl)quinazolin-2-yloxy)ethyl)acetamide] as the compound, how does the Binding % read?
Its Binding % is “++++ (++++ indicates binding activity greater than 75%)”.

For C=CC(=O)N1CCN(c2nc(OCCN(C)C)nc3c(F)c(-c4c(C)ccc5[nH]ncc45)c(Cl)cc23)CC1C (centres unmarked) [Compound 367, 1-(4-(6-chloro-2-(2-(dimethylamino)ethoxy)-8-fluoro-7-(5-methyl-1H-indazol-4-yl)quinazolin-4-yl)-2-methylpiperazin-1-yl)prop-2-en-1-one], which Binding % is on record?
The Binding % was “++++ (++++ indicates binding activity greater than 75%)”.

How did the Binding % turn out when C=CC(=O)N1CCN(c2ncnc3c(F)c(-c4c(F)ccc5cn[nH]c45)c(Cl)cc23)CC1 [Compound 368, 1-(4-(6-chloro-8-fluoro-7-(6-fluoro-1H-indazol-7-yl)quinazolin-4-yl)piperazin-1-yl)prop-2-en-1-one] was run?
Its Binding % is “++++ (++++ indicates binding activity greater than 75%)”.

C=CC(=O)N1CCN(c2nc(OCCc3nccn3C)nc3c(F)c(-c4c(C)ccc5[nH]ncc45)c(Cl)cc23)CC1 [Compound 369, 1-(4-(6-chloro-8-fluoro-2-(2-(1-methyl-1H-imidazol-2-yl)ethoxy)-7-(5-methyl-1H-indazol-4-yl)quinazolin-4-yl)piperazin-1-yl)prop-2-en-1-one] was tested. Which Binding % did it give?
The Binding % was “++++ (++++ indicates binding activity greater than 75%)”.

How did the Binding % turn out when C=CC(=O)N1CCN(c2ncnc3c(F)c(-c4c(O)cccc4F)c(Cl)cc23)CC1 [Compound 370, (R)-1-(4-(6-chloro-8-fluoro-7-(2-fluoro-6-hydroxyphenyl)quinazolin-4-yl)piperazin-1-yl)prop-2-en-1-one] was run?
Its Binding % is “+ (+ indicates binding activity from 5% to 25%)”.

For C=CC(=O)N1CCN(c2nc(N(C)CCN(C)C)nc3c(F)c(-c4c(C)ccc5[nH]ncc45)c(Cl)cc23)CC1 [Compound 371, 1-(4-(6-chloro-2-((2-(dimethylamino)ethyl)(meth-yl)amino)-8-fluoro-7-(5-methyl-1H-indazol-4-yl)quinazolin-4-yl)piperazin-1-yl)prop-2-en-1-one], which Binding % is on record?
Its Binding % is “++ (++ indicates binding activity greater than 25% and up to 50%)”.

For C=CC(=O)N1CCN(c2nc(NC3CCN(C)C3)nc3c(F)c(-c4c(C)ccc5[nH]ncc45)c(Cl)cc23)CC1 (centres unmarked) [Compound 372, 1-(4-(6-chloro-8-fluoro-7-(5-methyl-1H-indazol-4-yl)-2-(1-methylpyrrolidin-3-ylamino)quinazolin-4-yl)piperazin-1-yl)prop-2-en-1-one], which Binding % is on record?
The Binding % was “+++ (+++ indicates binding activity greater than 50% and up to 75%)”.

How did the Binding % turn out when C=CC(=O)N1CCN(c2nc(OCCN3CCN(C)CC3)nc3c(F)c(-c4c(C)ccc5[nH]ncc45)c(Cl)cc23)CC1 [Compound 373, 1-(4-(6-chloro-8-fluoro-7-(5-methyl-1H-indazol-4-yl)-2-(2-(4-methylpiperazin-1-yl)ethoxy)quinazolin-4-yl)piperazin-1-yl)prop-2-en-1-one] was run?
Its Binding % is “+++ (+++ indicates binding activity greater than 50% and up to 75%)”.
